# How the values were obtained:
# [1] = test system: 8 week old db/db diabetic mice; assay: hyperinsulinemic-euglycemic clamp in db/db mice; type: in vivo, mouse
# Experimental: Glucose lowering in 8 week old db/db diabetic mice. The hyperinsulinemic-euglycemic clamp protocol was conducted to measure insulin sensitivity in vivo. In this procedure, insulin was administered to raise the insulin concentration while glucose was infused to maintain euglycemia or a fixed, normal blood glucose level (about 180 mg/dL). […] The objective of this protocol was to investigate characterize the capacity of 17α-ethynylandrost-5-ene-3β,7β,17β-triol and androst-5-ene-3β,7β,16α,17β-tetrol to ameliorate systemic insulin resistance and improve whole body glucose disposal in the hyperinsulinemic-euglycemic clamp model. The degree of skeletal muscle and hepatic insulin sensitivity and tissue specific glucose uptake were also assessed. The animals were dosed daily by oral gavage for 14 days. On Day 10 of treatment catheters were implanted in the carotid artery and jugular vein. On the day of the clamp (day 14) the compound was administered at 7:30 am.
# Body weight and glucose concentration were assessed on day 0, 7 and day 14 of treatment. On day 14 a euglycemic hyperinsulinemic clamp was performed. […] Plasma ^14C 2-deoxyglucose was assessed at 122, 125, 130, 135, 145 min. […]
# Analysis was conducted as follows. Plasma samples were deproteinized with Ba(OH)2 (0.3 N) and ZnSO4 (0.3 N), dried and radioactivity was assessed on scintillation counter (Packard TRICARB 2900 TR, Meriden, Conn.). […] One supernatant was directly counted to determine radioactivity from both [14C] […] A second aliquot was treated with Ba(OH)2 and ZnSO4 to remove ^14C DGP and any tracer incorporated into glycogen and then counted to determine radioactivity from free [^14C]DG(2). [^14C]DGP was calculated as the difference between the two aliquots. […] Rg, an index of tissue specific glucose uptake was calculated as previously described (E. W. Kraegen et al., Am. J. Physiol., 248:E353-E362, 1985). Whole body glucose turnover was calculated as the ratio of the ^3H glucose infusion rate (dpm/kg/min) and arterial plasma glucose specific activity (dpm/mg). […]
# CaCo-2 cell monolayer = assay: drug absorption with CaCo-2 cells; type: in vitro ADME, human
# Experimental: Measurement of drug absorption with CaCo-2 cells. This protocol was used to measure the influx of compounds across a CaCo-2 cell monolayer. […] This cell line is used to study the rate at which various compounds cross the cell monolayer. […] This can provide information about a compound's potential to be orally bioavailable.
# In this protocol, the cells were maintained in medium at 37° C., using 100 μL per well of warm medium in a sterile 50 ml tube. The cells were grown on sterile 24-well plates with 600 μL of differentiation medium per well. The wells contained a transwell insert to allow two compartments per well. […]
# After differentiation medium reached room temperature, about 20 mL was poured into a small beaker. […] Each well was measured by the probe by inserting the probe into the well without touching the cell monolayer; press the TEST button when the probe is close to the medium surface and the reading will go from 0000 to a number when the probe touches the surface; a reading >1000Ω was acceptable. […]
# 20 μL of the 3α,7β,16α,17β-tetrahydroxyandrost-5-ene internal standard was added to each tube and 1500 μL of methyl-t-butyl ether was added to each tube. […] The methyl-t-butyl ether was then evaporated under nitrogen and reconstituted in 120 μL acetonitrile/water (35:65) and analyzed by LCMS.
# MG-63 cells = assay: reversal of glucocorticoid effects in MG-63 osteosarcoma cells; type: cell-based, human; conditions: 0.1 μM compound
# [2] = metabolic stability in liver microsomes: mouse; conditions: 10 min
# Experimental: (§1) The protocol was performed as follows. […] (2) Set up samples as follows. […] (4) The internal standard/acetonitrile solution.
# [3] = test system: estrogen receptor-s or estrogen receptor-s; assay: interaction with estrogen receptors
# androgen receptor = androgen receptor (Homo sapiens, UniProt P10275); assay: interaction with androgen receptor
# androgen receptor, sequence (P10275 whole entry, species assumed): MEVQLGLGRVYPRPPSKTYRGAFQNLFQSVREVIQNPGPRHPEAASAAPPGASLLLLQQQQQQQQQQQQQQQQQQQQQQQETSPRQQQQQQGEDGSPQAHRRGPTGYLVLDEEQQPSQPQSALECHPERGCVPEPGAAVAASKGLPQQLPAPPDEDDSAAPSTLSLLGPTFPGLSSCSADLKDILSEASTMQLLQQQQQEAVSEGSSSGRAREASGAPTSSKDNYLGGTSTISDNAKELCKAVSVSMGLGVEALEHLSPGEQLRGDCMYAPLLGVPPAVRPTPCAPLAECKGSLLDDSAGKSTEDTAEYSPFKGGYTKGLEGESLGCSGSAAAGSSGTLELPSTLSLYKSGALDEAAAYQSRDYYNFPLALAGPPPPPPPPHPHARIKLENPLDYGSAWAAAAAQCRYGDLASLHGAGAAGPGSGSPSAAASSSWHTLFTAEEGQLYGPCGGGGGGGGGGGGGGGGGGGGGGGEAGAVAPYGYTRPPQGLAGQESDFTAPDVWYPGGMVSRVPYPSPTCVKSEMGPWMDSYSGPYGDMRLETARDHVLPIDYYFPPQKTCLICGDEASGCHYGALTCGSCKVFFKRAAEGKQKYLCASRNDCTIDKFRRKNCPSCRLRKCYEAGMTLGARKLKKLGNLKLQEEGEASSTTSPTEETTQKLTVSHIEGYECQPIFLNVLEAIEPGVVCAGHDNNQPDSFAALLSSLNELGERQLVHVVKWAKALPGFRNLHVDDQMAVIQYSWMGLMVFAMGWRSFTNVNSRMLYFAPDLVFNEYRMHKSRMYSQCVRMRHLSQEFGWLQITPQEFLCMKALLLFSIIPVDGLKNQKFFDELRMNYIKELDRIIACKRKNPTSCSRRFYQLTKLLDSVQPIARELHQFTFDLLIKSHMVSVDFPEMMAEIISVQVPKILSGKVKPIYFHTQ
# female SJL mice, EAE = assay: experimental autoimmune encephalomyelitis (EAE), PLP-induced, Example 23; type: in vivo, mouse; conditions: 0.1 mg q.d. po from clinical onset
# [4] = metabolic stability in liver microsomes: human
# Experimental: as §1
# [5] = other protocols: degree of sulfation and glucuronidation
# [6] = test system: C57/BL6 mice, LPS-induced acute lung inflammation; assay: LPS-induced lung injury, BAL and lung MPO, Example 11; type: in vivo, mouse; conditions: 40 mg/Kg orally; 48 h after LPS
# [7] = test system: rats hemorrhaged to mean arterial pressure of about 35-40 mmHg; assay: reduced blood pressure hemorrhagic trauma protocol; type: in vivo, rat; conditions: one s.c. injection 40 mg/kg; n=7; untreated group 75%
# Experimental: A reduced blood pressure hemorrhagic trauma protocol was also conducted as a second model of hemorrhagic trauma. In this protocol, 15 rats were hemorrhaged described above to a mean arterial pressure of about 35-40 mmHg and resuscitated one hour from onset of the hemorrhage with crystalloid and PRBCs. Seven […] subcutaneous injection of androst-5-ene-3β,7β,17β-triol in a methyl cellulose suspension at a concentration of 40 mg/kg body weight in 100 μL/kg body weight, one hour after initiation of hemorrhage, but before fluid resuscitation. Eight animals received subcutaneous methyl cellulose control injection at 100 μL/kg body weight. Two days after induction of hemorrhage, mortality in the untreated group (n=8) was 75%.
# [8] = test system: gerbils, cerebral ischemic stroke; assay: acute cerebral ischemic stroke by bilateral carotid occlusion; type: in vivo, gerbil; conditions: stroke treated
# Excerpt: Treatment of neuron loss associated with trauma and osteoporosis or bone loss conditions. Immune competence is a complex function that can be acutely impaired following trauma-induced elevations in endogenous glucocorticoid (GC) levels. The compound 5-androstene-3β,7β,17β-triol administered parenterally was used to preserve these immune function by exerting a trophic or anabolic activity. […] Thus, the measured food-searching latency period in each group was 6.9±0.9 seconds (sec) for sham, 46.9±13.6 sec for stroke alone and 14.8±4.8 sec for stroke treated with 5-androstene-3β,7β,17β-triol. Concomitantly, the stroke-induced loss in CA1 hippocampal neuron count was markedly abrogated by 5-androstene-3β,7β,17β-triol (sham=362,247±6,839; stroke=152,354±11,575; and stroke+5-androstene-3β,7β,17β-triol=207,854±47,334).
# [9] = test system: rats, trauma and hemorrhage; assay: rat model of hemorrhagic trauma, 40% loss of total blood volume; type: in vivo; conditions: one s.c. injection 40 mg/kg one hour after initiation of hemorrhage; n=12
# Experimental: The effect of treatment in a rat model of hemorrhagic trauma was examined. Twenty-four rats were subjected to 40% loss of total blood volume, consisting of catheterization and laparotomy (soft tissue injury) to mimic trauma and hemorrhage. One hour after onset of hemorrhage, the animals were resuscitated with crystalloid fluid and packed red blood cells (PRBCs). […] Twelve animals received subcutaneous methyl cellulose control injection at 100 μL/kg body weight.
# [10] = test system: thermally-injured mice (20% total body surface area); assay: bone loss in thermally-injured mice; type: in vivo, mouse
# Excerpt: In bone loss conditions, 5-androstene-3β,7β,17β-triol affected the principal bone structures, i.e., cortical and trabecular layers and the growth plate. […] We observed partial protection against loss of bone mineral content as measured by dual X-ray absorptiometry.
# PPARα mRNA = assay: liver mRNA by RT-PCR in rats fed compound in chow: PPARα; type: in vivo, rat; conditions: 0.45% wt/wt in chow for 6 days; control 100%
# Excerpt: (§2) Rats were fed ad libum with a standard laboratory chow that contained 0.45% wt/wt of androst-5-ene-3β,7β,17β-triol for 6 days, followed by analysis of liver tissue on day 6 for levels of phosphoenolpyruvate carboxykinase (“PEPCK”) and 11β-hydroxysteroid dehydrogenase (“11β-HSD”) in the liver. Control animals were fed normal chow and livers were examined on day 6 for PEPCK and 11β-HSD levels by measurement of messenger RNAs (mRNAs) by RT-PCR. Both control and treated animals had free access to water. […] Levels of PPARα mRNA in these animals were not affected by feeding with androst-5-ene-3β,7β,17β-triol.
# PEPCK mRNA = assay: liver mRNA by RT-PCR in rats fed compound in chow: PEPCK; type: in vivo, rat; conditions: 0.45% wt/wt in chow for 6 days; control 100%
# Excerpt: as §2
# 11β-HSD1 mRNA = assay: liver mRNA by RT-PCR in rats fed compound in chow: 11β-HSD1; type: in vivo, rat; conditions: 0.45% wt/wt in chow for 6 days; control 100%
# Excerpt: as §2
# [11] = test system: male Wistar rats, DNBS colitis; assay: DNBS induced distal colitis; type: in vivo, rat; conditions: s.c. once a day for 6 days, 0.2 or 2.0 mg/animal/day; 25-30% decrease considered significant
# Experimental: Treatment of gastrointestinal inflammation. The capacity of formula 1 compounds to limit or inhibit inflammation or symptoms of inflammation was shown using an animal model for inflammatory bowel disease. Groups of 3 male Wistar rats (180±20 grams) fasted for 24 hours before 2,4-dinitrobenzene sulfonic acid (DNBS) or saline challenge were used. Distal colitis was induced by intra-colonic instillation of 0.5 mL of an ethanolic solution of DNBS (30 mg in 0.5 mL of a 30% ethanol in saline solution) after which 2 mL of air was injected through the cannula to ensure that the solution remained in the colon. The volume used was 0.1 mL per injection of 2 and 20 mg/mL of compound such as androst-5-ene-3β,7β,17β-triol in a liquid formulation, which was administered by subcutaneous injection once a day for 6 days (0.2 mg/animal/day or 2.0 mg/animal/day). The formulation contained 100 mg/mL of compound in a non-aqueous suspension, e.g., 2% benzyl alcohol w/v, 0.1% Brij 96 w/v and equal volumes of PEG 300 and propylene glycol. Concentrations of 2 mg/mL and 20 mg/mL were obtained by diluting the […] with vehicle that lacked compound.
# The first dose was given 30 minutes after DNBS challenge. […] The presence of diarrhea was recorded daily by examining the anal area. […] Before removal of the colon, signs of adhesion between the colon and other organs are recorded. […]
smiles,measurement,setting,value
"C[C@]12CC[C@H]3[C@@H]([C@@H](O)C=C4C[C@@H](O)CC[C@@]43C)[C@@H]1C[C@@H](O)[C@@H]2O [androst-5-ene-3β,7β,16α,17β-tetrol]",augmenting muscle glucose uptake in the gastrocnemius muscle,"[1]; ^14C-2-deoxyglucose, p<0.05",more effective
same,glucose infusion rate compared to the vehicle control,"[1]; oral gavage 14 days, insulin 10 mU/kg/min",increased the glucose infusion rate
same,permeability in the CaCo-2 cell line,CaCo-2 cell monolayer,not highly permeable
same,osteoprotegerin levels in the presence of 30 nM dexamethasone,MG-63 cells,normal osteoprotegerin levels
same,parent remaining mouse microsomes,[2],100% (10 min)
same,interaction with estrogen receptor-s or estrogen receptor-s,[3],do not interact
same,interaction with androgen receptor,androgen receptor,do not interact
same,course of EAE compared to vehicle-treated mice,"female SJL mice, EAE",significantly improved course of EAE
same,parent remaining human microsomes,[4]; 10 min,100% (10 min)
same,degree of sulfation and degree of glucuronidation compared to diols,[5],low
same,level of IL-6 in BAL compared to vehicle treated animals,[6],reduced levels
same,level of MPO compared to vehicle treated animals,[6],reduced levels
same,level of TNFα in BAL compared to vehicle treated animals,[6],reduced levels
"C[C@]12CC[C@H]3[C@@H]([C@@H](O)C=C4C[C@@H](O)CC[C@@]43C)[C@@H]1CC[C@@H]2O [androst-5-ene-3β,7β,17β-triol]",mortality rate two days after induction of hemorrhage,[7],43%
same,food-searching latency period,"[8]; sham 6.9±0.9, stroke alone 46.9±13.6",14.8 ± 4.8 s
same,CA1 hippocampal neuron count,"[8]; sham 362,247±6,839, stroke 152,354±11,575","207,854±47,334"
same,survival rate three days after induction of hemorrhage,[9],100%
same,parent remaining mouse microsomes,[2],89% (10 min)
same,femur ash weight versus vehicle-treated burned mice,[10],significantly (p<0.01) greater
same,loss of cortical (femur) and trabecular/cancellous (tibia) bone mass and suppression of chondrocyte proliferation in growth plate,[10],significantly (p<0.01) prevented
same,PPARα mRNA,PPARα mRNA,105%
same,PEPCK mRNA,PEPCK mRNA,30%
same,11β-HSD1 mRNA,11β-HSD1 mRNA,45%
same,parent remaining human microsomes,[4]; 90 min,86% (90 min)
same,decrease in net colon-to-body weight ratio,[11],15-20%

# Reference: US20080153792A1, “Drug Identification and Treatment Method” (priority 2006, published 2008)
